The subject of one experiment is female NMRI mice. Kind of experiment: Anorectic action: cumulative milk consumption after oral administration. The experiment is classed as in vivo. As to conditions: for cumulative milk consumption by treated animals: feed removed 17 h, monitored for 7 hours, N=5; for Reduction in cumulative milk consumption as % of the control: versus vehicle-treated control animals. The procedure: The anorectic action was tested on female NMRI mice. After removal of feed for 17 hours, the preparation to be tested was administered by gavage. The animals were housed singly and, with free access to drinking water, they were offered evaporated milk 30 minutes after administration of the preparation. The consumption of evaporated milk was determined and the general behavior of the animals were monitored every half an hour for 7 hours. The measured milk consumption was compared to that of vehicle-treated control animals.

The target of another experiment is T1, human MCH receptor (Homo sapiens, UniProt Q99705).
T1 construct: expressed in transfected cells
T1 sequence (Q99705 whole entry): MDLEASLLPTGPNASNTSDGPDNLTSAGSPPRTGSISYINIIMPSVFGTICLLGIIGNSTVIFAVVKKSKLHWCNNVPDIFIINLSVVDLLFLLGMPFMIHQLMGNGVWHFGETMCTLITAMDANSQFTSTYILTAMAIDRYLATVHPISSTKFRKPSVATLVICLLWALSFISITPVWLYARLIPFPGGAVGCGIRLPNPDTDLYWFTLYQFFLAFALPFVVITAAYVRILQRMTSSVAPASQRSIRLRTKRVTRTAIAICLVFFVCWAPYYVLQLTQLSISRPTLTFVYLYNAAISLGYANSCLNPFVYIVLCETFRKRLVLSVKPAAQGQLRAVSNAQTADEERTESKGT
Kind of experiment: Functional measurement of cellular calcium flow (FLIPR) in recombinant HEK293 cells expressing human MCH receptor. The format is cell-based. As to conditions: cellular assay, calcium flow after addition of agonist (MCH), HEK293 (PEAK Stable Cells) expressing human MCH receptor. The text has this: In two simultaneously published articles in Nature (Nature, 400:261-264, 1999; Nature, 400:265-269, 1999, see enclosure), two groups separately described a highly specific receptor for melanin-concentrating hormone (MCH). MCH takes over important functions in the control of food intake. Compounds acting on the MCH receptor therefore have anorectic action and are suitable for the treatment of obesity. The test for anorectic action of the inventive compounds of formula I was therefore carried out as follows.
Functional measurements for determination of IC50
Cloning of the cDNA for human MCH receptor, preparation of a recombinant HEK293 cell line expressing human MCH receptor and functional measurements with said recombinant cell line were carried out according to the description by Audinot et al. (J. Biol. Chem., 276, 13554-13562, 2001). In contrast to the reference, however, plasmid pEAK8 from EDGE Biosystems (USA) was used for constructing the expression vector. A transformed HEK cell line named “PEAK Stable Cells” (likewise from EDGE Biosystems) served as host for transfection. The functional measurements of cellular calcium flow, after addition of agonists (MCH), in the presence of the ligand of the invention was carried out with the aid of the FLIPR instrument from Molecular Devices (USA), using the manufacturer's protocols.

pIC50: −log10 of the molar value.

This note sets out measurements from patent US20040198731A1, “Aminoalkyl-substituted aromatic bicyclic compounds, methods for their preparation and their use as pharmaceuticals” (Aventis Pharma Deutschland GmbH, priority 2001, published 2004).

As usually defined, the pIC50 is −log10 of the IC50, conventionally taken in molar units. For the molecule `CN(C)CCn1ccc2cc(NC(=O)Nc3ccc(Oc4ccccc4)cc3)ccc21` [Example 1, 1-[1-(2-Dimethylaminoethyl)-1H-indol-5-yl]-3-(4-phenoxyphenyl)urea], in the experiment on female NMRI mice (oral dose 30 mg/kg by gavage), the “cumulative milk consumption by treated animals” value was 5/2.28 mL and the “Reduction in cumulative milk consumption as % of the control” value is listed as 30%. Moreover, the pIC50 at human MCH receptor was 6.82.
Take `CN(C)CCn1cnc2cc(NC(=O)Nc3ccc(Oc4ccccc4)cc3)ccc21` [Example 4, 1-[1-(2-Dimethylaminoethyl)-1H-benzoimidazol-5-yl]-3-(4-phenoxyphenyl)urea]: in the experiment on female NMRI mice (oral dose 10 mg/kg by gavage), the “cumulative milk consumption by treated animals” value is on record as 5/2.74 mL and the “Reduction in cumulative milk consumption as % of the control” value is listed as 38%. Besides, the pIC50 on human MCH receptor was 6.89.
In the case of `Cc1ccccc1Oc1ccc(NC(=O)Nc2ccc3c(ccn3CCN(C)C)c2)cc1` [Example 108, 1-[1-(2-Di-methylaminoethyl)-1H-in-dol-5-yl]-3-(4-o-tolyl-oxyphenyl)urea], the pIC50 on human MCH receptor was 6.37.
Still for that read-out and setting: then `COc1cccc(Oc2ccc(NC(=O)Nc3ccc4c(ccn4CCN(C)C)c3)cc2)c1` [Example 109, 1-[1-(2-Dimethyl-aminoethyl)-1H-indol-5-yl]-3-[4-(3-meth-oxyphenoxy)-phenyl]urea], with 5.89.
